Like-named read-outs stand apart in the source and are kept apart here.
How the values were obtained:
DNA = DNA binding observed in the Topo II relaxation comparison; conditions: seen in Topo II relaxation comparison
Topo II = test: Topo II-mediated relaxation of pRYG-DNA; type: biochemical
A549 = test: SRB cytotoxicity assay, solid tumor cells A549; type: cell-based, human; conditions: for IC50: Homo sapiens, A549, SRB
CCRF-CEM/VBL = test: XTT cytotoxicity assay, vinblastine-resistant subline; type: cell-based, human
Method: (§1) The effects of the compounds on cell growth were determined in all human tumor cells (i.e. T-cell acute lymphocytic leukemia CCRF-CEM), in a 72 h incubation, by XTT-tetrazolium assay, as described by Scudiero et al., Cancer Res. 1988, 48, 4827-4833. After the addition of phenazine methosulfate-XTT solution at 37° C. for 6 h, absorbance at 450 and 630 nm was detected on a microplate reader (EL 340; Bio-Tek Instruments Inc., Winooski, Vt.). Six to seven concentrations of each compound were used. The IC50 and dose-effect relationships of the compounds for antitumor activity were calculated by a median-effect plot (see, e.g., Chou et al. Adv. Enzyme Regul. 1984, 22, 27-55) using a computer program on an IBM-PC workstation (see, e.g., Chou et al. Dose-Effect Analysis with Microcomputers: Quantitation of ED50, LD50, Synergism, Antagonism, Low-Dose Risk, Receptor-Ligands Binding and Enzyme Kinetics; Biosoft: Cambridge, U.K., 1987).
(§2) Data summarizing the growth inhibition of human lymphoblastic leukemic cells (CCRF-CEM) and its drug-resistant sublines (resistant to vinblastine and taxol, CCRF-CEM/VBL and CCRF-CEM/taxol, respectively) by compound 37 is shown in Table 4.

CCRF-CEM/Taxol = test: XTT cytotoxicity assay, taxol-resistant subline; type: cell-based, human
Method: as §1, §2

[1] = system: human lymphoblastic leukemic cells (CCRF-CEM); test: XTT-tetrazolium cytotoxicity assay, CCRF-CEM; type: cell-based; conditions: for IC50: Homo sapiens, 72 h
Method: as §1

HCT-116 = test: SRB cytotoxicity assay, solid tumor cells HCT-116; type: cell-based; conditions: Homo sapiens, HCT-116, 72 h, read-out: IC50 HCT-116
[2] = system: human mammary carcinoma (MX-1) xenografts; test: MX-1 xenograft in nude mice; type: in vivo; conditions: for Average Body Weight: D11 (start of treatment, baseline weight)
Method: (§3) Athymic nude mice bearing the nu/nu gene were used for human breast tumor MX-1 xenograft. Outbred Swiss-background mice were obtained from Charies River Breeding Laboratories. Male mice 8 weeks old or older weighing 22 g or more were used for most experiments. Drug was administrated via the tail vein by i.v. injection. Tumor volumes were assessed by measuring length×width×height (or width) by using caliper. Vehicle used was 20 μl DMSO in 180 μl saline. All animal studies were conducted in accordance with the guidelines of the National Institutes of Health Guide for the Care and Use of Animals and the protocol approved by the Memorial Sloan-Kettering Cancer Center's Institutional Animal Care and Use Committee.

[3] = system: human T-cell lymphoblastic leukemic lymphoma xenografts (CCRF-CEM); test: CCRF-CEM xenograft in nude mice; type: in vivo
Method: as §3
Table 6 summarizes data related to the therapeutic effects and toxicity of compound 37 in nude mice bearing human T-cell leukemic lymphoma CCRF-CEM xenografts. About 70% of average tumor sized was reduced at the dose of 2 mg/kg (Q3D×5).

[4] = number in bracket, ratio of IC50's
[5] = 3 mg/kg Q4Dx5 i.v., column D17, marked (D15)
[6] = 3 mg/kg Q4Dx5 i.v., column D20, marked (D19)

## OCc1cc(Nc2c3ccccc3nc3ccccc23)cc(OCCN(CCCl)CCCl)c1 [Compound 37, (3-(Acridin-9-ylamino)-5-{2-[bis(2-chloroethyl)amino]ethoxy}phenyl)methanol]
DNA
  binding to DNA: binds relatively tightly to DNA
Topo II
  Topo II-mediated relaxation of pRYG-DNA: inhibited DNA relaxation
A549; 72 hours incubation, read-out: IC50 A549
  IC50: 5.6 ± 1.2 nM
A549; incubation for 3 hours, washed, then incubated for a total of 72 hours (footnote b), read-out: IC50 A549 after washing
  IC50: 5 nM
A549; washed away after incubation for 24 h
  alteration of potency when drug washed away: no alteration of the potency
CCRF-CEM/VBL; CCRF-CEM/VBL vs CCRF-CEM
  cross-resistance to vinblastine: does not develop cross-resistance
CCRF-CEM/VBL; Homo sapiens, CCRF-CEM, 72 h, read-out: IC50 CCRF-CEM/VBL
  IC50: 7.5 nM
CCRF-CEM/VBL; [4]
  folds of resistance CCRF-CEM/VBL vs CCRF-CEM parent cells: 0.53 ×
CCRF-CEM/Taxol; CCRF-CEM/taxol vs CCRF-CEM
  cross-resistance to taxol: does not develop cross-resistance
CCRF-CEM/Taxol; Homo sapiens, CCRF-CEM, 72 h, read-out: IC50 CCRF-CEM/Taxol
  IC50: 34 ± 13 nM
CCRF-CEM/Taxol; [4]
  folds of resistance CCRF-CEM/Taxol vs CCRF-CEM parent cells: 1.3 ×
[1]
  cytotoxicity relative to AHMA: about 79 fold
  IC50: 7 nM
[1]; read-out: IC50 CCRF-CEM
  IC50: 9.5 ± 2.5 nM
HCT-116
  IC50: 5.5 ± 1 nM
[2]; 3 mg/kg Q4Dx5 i.v.
  Average Body Weight: 30.1 gm
[2]; 3 mg/kg Q4Dx5 i.v., D14
  Average Body Weight Change: −3.5 gm
[2]; 3 mg/kg Q4Dx5 i.v., D23
  Average Body Weight Change: −7.2 gm
  Average Tumor Size (T/C): 0.01
[2]; 3 mg/kg Q4Dx5 i.v., animals tumor free/total (D27, 28)
  Tumor free: 2/3
[2]; [5]
  Average Body Weight Change: −3.3 gm
  Average Tumor Size (T/C): 0.26
[2]; [6]
  Average Body Weight Change: −4.7 gm
  Average Tumor Size (T/C): 0.03
[2]; 3 mg/kg Q4Dx5 i.v., column D26, marked (D27)
  Average Body Weight Change: −8.8 gm
[2]; 3 mg/kg Q4Dx5 i.v., deaths/total (D27, 28, 29)
  Toxicity (death): 3/3
[2]; 1-2 mg/kg (Q3DX7) or 3 mg/kg (Q4D×5), intravenous injection, n=3
  mice becoming tumor-free: 66.7%
[2]; 1-2 mg/kg Q3Dx7 i.v.
  Average Body Weight: 28.3 gm
[2]; 1-2 mg/kg Q3Dx7 i.v., D14
  Average Body Weight Change: +1.2 gm
[2]; 1-2 mg/kg Q3Dx7 i.v., D17
  Average Body Weight Change: −1.4 gm
  Average Tumor Size (T/C): 0.37
[2]; 1-2 mg/kg Q3Dx7 i.v., D20
  Average Body Weight Change: −3.0 gm
  Average Tumor Size (T/C): 0.17
[2]; 1-2 mg/kg Q3Dx7 i.v., D23
  Average Body Weight Change: −3.0 gm
  Average Tumor Size (T/C): 0.14
[2]; 1-2 mg/kg Q3Dx7 i.v., D26
  Average Body Weight Change: −3.9 gm
[2]; 1-2 mg/kg Q3Dx7 i.v., animals tumor free/total (D32.32)
  Tumor free: 2/3
[2]; 1-2 mg/kg Q3Dx7 i.v., deaths/total
  Toxicity (death): 0/3
[3]; 2 mg/kg (Q3D×5)
  average tumor size reduced: About 70%
[3]; 2 mg/kg Q3Dx5 i.v., D10 (start of treatment, baseline weight)
  Average Body Weight: 29.4 gm
[3]; 2 mg/kg Q3Dx5 i.v., D13
  Average Body Weight Change: −1.1 gm
[3]; 2 mg/kg Q3Dx5 i.v., D16
  Average Body Weight Change: −4.2 gm
  Average Tumor Size (T/C): 0.47
[3]; 2 mg/kg Q3Dx5 i.v., D19
  Average Body Weight Change: −3.3 gm
  Average Tumor Size (T/C): 0.34
[3]; 2 mg/kg Q3Dx5 i.v., D22
  Average Body Weight Change: −5.9 gm
  Average Tumor Size (T/C): 0.33
[3]; 2 mg/kg Q3Dx5 i.v., D25
  Average Body Weight Change: −6.8 gm
  Average Tumor Size (T/C): 0.34
[3]; 2 mg/kg Q3Dx5 i.v., animals tumor free/total
  Tumor free: 0/3
[3]; 2 mg/kg Q3Dx5 i.v., deaths/total
  Toxicity (death): 0/3

Source: US20080176889A1, “9-anilinoacridine alkylating agents” (priority 2004, published 2008)
